Activity calls are given as the source filed them.
Tests used:
[1] = molecular target: T1, UMP-CMP kinase (Homo sapiens, UniProt P30085)
T1 sequence (P30085 whole entry): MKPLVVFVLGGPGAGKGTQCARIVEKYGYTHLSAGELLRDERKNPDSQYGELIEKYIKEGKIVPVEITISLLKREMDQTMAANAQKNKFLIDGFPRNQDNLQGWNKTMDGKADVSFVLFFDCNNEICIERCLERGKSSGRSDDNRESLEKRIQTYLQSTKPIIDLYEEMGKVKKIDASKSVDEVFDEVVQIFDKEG

[2] = molecular target: T2, Phosphatidylinositol 5-phosphate 4-kinase type-2 alpha (Homo sapiens, UniProt P48426)
T2 sequence (P48426 whole entry): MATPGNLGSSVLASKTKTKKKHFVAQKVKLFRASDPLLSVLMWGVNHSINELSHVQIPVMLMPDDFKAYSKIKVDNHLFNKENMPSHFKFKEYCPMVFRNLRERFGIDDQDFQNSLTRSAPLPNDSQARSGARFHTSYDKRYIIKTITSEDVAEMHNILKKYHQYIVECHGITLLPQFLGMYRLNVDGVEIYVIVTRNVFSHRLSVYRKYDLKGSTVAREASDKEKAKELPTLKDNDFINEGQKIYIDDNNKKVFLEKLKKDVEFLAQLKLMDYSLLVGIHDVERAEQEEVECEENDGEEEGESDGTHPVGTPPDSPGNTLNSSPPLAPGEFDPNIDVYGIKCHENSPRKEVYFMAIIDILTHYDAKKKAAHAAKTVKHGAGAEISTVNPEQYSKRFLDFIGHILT

[3] = molecular target: T3, Cyclin-dependent kinase-like 5 (Homo sapiens, UniProt O76039)
T3 sequence (O76039 whole entry): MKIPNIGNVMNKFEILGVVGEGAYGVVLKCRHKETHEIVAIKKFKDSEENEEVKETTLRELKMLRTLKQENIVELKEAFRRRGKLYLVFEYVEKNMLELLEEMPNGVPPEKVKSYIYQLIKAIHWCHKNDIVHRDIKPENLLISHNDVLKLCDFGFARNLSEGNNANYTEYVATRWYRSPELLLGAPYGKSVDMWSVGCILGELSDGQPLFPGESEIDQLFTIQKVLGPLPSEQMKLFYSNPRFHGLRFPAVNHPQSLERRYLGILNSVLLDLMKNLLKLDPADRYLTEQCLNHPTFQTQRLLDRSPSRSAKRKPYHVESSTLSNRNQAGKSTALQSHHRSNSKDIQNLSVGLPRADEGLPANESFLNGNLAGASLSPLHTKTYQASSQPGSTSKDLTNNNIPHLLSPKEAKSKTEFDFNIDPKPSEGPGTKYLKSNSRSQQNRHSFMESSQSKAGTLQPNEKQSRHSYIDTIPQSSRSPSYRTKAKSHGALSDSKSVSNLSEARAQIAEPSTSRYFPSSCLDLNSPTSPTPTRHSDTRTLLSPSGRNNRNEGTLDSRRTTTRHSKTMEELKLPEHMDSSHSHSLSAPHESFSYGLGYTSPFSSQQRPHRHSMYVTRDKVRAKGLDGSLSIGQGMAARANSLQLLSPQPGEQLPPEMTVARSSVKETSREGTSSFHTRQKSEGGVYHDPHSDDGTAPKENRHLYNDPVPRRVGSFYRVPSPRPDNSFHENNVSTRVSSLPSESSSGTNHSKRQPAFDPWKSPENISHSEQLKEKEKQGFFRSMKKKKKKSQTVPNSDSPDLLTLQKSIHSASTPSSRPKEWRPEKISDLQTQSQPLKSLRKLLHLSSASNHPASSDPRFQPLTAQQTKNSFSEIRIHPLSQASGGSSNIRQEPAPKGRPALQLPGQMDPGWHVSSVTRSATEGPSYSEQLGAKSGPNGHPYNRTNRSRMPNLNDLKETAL

[4] = molecular target: Serine/threonine-protein kinase PLK1 (Homo sapiens, UniProt P53350)
Serine/threonine-protein kinase PLK1, sequence (P53350 whole entry): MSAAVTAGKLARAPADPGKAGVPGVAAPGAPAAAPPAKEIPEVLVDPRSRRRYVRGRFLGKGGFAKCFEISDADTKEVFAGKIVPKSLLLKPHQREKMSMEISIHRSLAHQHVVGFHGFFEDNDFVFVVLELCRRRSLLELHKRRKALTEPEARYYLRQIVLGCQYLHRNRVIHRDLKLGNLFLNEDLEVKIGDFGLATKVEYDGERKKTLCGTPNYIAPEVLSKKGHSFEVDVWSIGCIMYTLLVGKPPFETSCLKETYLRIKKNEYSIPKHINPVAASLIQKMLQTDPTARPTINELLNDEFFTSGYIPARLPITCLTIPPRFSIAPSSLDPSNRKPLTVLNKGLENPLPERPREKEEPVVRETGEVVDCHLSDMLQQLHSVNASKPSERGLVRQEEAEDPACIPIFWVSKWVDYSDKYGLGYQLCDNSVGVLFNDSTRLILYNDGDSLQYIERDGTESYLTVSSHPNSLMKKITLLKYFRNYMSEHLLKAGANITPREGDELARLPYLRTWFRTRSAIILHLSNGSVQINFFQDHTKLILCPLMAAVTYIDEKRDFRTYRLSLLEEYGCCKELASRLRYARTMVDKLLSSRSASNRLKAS

[5] = molecular target: Guanine nucleotide-binding protein G(i) subunit alpha-2 (Homo sapiens, UniProt P04899)
Guanine nucleotide-binding protein G(i) subunit alpha-2, sequence (P04899 whole entry): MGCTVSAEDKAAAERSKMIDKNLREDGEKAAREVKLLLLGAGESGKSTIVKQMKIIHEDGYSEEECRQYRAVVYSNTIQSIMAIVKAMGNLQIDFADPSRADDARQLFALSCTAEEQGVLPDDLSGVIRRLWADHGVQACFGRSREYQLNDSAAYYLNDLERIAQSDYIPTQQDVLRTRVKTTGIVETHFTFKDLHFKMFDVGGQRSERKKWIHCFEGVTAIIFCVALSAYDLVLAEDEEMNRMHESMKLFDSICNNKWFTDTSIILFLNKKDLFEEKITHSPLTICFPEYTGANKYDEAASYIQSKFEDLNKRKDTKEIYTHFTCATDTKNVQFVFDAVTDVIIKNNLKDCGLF

[6] = molecular target: Cyclin-dependent kinase 2 (Homo sapiens, UniProt P24941)
[7] = molecular target: Protein kinase C theta type (Homo sapiens, UniProt Q04759)
Protein kinase C theta type, sequence (Q04759 whole entry): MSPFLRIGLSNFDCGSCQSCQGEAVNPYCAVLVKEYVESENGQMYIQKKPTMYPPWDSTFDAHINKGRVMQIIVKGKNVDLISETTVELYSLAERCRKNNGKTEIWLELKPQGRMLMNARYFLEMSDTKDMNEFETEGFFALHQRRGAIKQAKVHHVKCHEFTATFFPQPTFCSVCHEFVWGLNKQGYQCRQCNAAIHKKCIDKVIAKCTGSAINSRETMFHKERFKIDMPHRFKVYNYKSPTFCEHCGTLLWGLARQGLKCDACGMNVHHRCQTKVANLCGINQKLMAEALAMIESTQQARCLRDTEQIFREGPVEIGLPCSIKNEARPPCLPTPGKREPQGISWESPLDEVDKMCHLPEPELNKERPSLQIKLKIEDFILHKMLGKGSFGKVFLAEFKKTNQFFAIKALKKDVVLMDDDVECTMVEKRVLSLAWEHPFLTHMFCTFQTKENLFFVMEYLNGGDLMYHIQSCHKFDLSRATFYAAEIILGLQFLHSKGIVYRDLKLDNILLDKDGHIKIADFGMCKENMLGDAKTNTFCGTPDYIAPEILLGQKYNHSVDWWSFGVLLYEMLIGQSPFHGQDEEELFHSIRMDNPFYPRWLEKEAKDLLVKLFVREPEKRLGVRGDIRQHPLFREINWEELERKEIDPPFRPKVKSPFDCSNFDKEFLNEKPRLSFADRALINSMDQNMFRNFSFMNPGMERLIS

[8] = molecular target: T4, Thyroid hormone receptor-associated protein 3 (Homo sapiens, UniProt Q9Y2W1)
T4 sequence (Q9Y2W1 whole entry): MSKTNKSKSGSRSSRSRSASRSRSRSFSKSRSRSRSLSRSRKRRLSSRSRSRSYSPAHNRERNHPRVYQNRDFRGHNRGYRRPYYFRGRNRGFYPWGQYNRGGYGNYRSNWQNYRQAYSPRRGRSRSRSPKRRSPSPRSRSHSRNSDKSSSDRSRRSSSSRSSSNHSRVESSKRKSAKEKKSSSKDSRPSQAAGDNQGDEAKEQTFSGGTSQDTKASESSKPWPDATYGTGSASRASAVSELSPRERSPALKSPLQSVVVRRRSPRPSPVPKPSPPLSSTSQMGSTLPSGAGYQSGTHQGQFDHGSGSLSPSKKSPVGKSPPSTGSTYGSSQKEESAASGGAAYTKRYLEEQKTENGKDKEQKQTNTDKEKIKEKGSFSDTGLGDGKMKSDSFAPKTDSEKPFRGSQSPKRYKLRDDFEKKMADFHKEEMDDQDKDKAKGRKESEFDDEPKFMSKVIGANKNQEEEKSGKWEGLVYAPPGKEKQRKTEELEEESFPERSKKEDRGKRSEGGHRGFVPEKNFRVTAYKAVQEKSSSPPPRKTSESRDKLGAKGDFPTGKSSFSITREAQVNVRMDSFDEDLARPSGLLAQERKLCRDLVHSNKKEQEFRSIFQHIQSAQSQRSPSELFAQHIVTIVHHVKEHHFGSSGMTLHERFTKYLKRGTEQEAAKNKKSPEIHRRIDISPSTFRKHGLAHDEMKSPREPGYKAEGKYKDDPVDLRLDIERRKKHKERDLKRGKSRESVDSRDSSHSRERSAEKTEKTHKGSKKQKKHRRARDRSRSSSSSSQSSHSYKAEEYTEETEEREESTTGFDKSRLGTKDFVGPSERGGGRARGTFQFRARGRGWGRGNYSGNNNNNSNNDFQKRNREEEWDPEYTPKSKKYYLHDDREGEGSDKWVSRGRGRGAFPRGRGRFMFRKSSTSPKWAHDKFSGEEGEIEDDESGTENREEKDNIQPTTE

[9] = molecular target: Dual specificity protein kinase CLK4 (Homo sapiens, UniProt Q9HAZ1)
Dual specificity protein kinase CLK4, sequence (Q9HAZ1 whole entry): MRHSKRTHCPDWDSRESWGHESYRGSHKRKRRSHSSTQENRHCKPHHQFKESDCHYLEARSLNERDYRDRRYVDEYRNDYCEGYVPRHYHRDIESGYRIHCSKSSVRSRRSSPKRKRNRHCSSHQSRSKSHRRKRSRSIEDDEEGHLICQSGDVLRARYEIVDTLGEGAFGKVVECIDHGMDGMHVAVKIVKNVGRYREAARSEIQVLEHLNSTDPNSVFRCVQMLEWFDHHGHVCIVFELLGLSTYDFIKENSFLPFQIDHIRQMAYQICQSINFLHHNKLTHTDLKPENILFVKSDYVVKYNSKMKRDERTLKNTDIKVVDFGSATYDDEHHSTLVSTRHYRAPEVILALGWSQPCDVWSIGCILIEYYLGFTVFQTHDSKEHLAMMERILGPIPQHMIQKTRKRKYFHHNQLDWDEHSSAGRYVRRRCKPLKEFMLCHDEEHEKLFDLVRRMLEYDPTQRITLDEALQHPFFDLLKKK
Further: in the data inactive means no Kd found up to 30 µM.

Structure (SMILES)	Kd [1]	Kd [2]	Kd [3]	Kd [4]	Kd [5]	Kd [6]	Kd [7]	Kd [8]	Kd [9]
N[C@@H]1CCCN(c2c(/C=C3\SC(=O)NC3=O)cccc2-c2ccccc2)C1	> 30 µM (inactive)	> 30 µM (inactive)	> 30 µM (inactive)	> 30 µM (inactive)	> 30 µM (inactive)	> 30 µM (inactive)			
CCS(=O)(=O)N1CC(CC#N)(n2cc(-c3ncnc4[nH]ccc34)cn2)C1 [BARICITINIB]	> 30 µM (inactive)				> 30 µM (inactive)	> 30 µM (inactive)	> 30 µM (inactive)	> 30 µM (inactive)	> 30 µM (inactive)
COC(=O)N[C@@H](C)CNc1nccc(-c2cn(C(C)C)nc2-c2cc(Cl)cc(NS(C)(=O)=O)c2F)n1 [ENCORAFENIB]	> 30 µM (inactive)	> 30 µM (inactive)	> 30 µM (inactive)		> 30 µM (inactive)	> 30 µM (inactive)	> 30 µM (inactive)	> 30 µM (inactive)	> 30 µM (inactive)
COC(=O)[C@@]1(O)C[C@H]2O[C@]1(C)n1c3ccccc3c3c4c(c5c6ccccc6n2c5c31)C(=O)NC4 [K-252A]		> 30 µM (inactive)	> 30 µM (inactive)					> 30 µM (inactive)	0.015 µM (active)
COc1cc2nccc(Oc3ccc(NC(=O)NC4CC4)c(Cl)c3)c2cc1C(N)=O [LENVATINIB]	> 30 µM (inactive)	> 30 µM (inactive)			> 30 µM (inactive)	> 30 µM (inactive)	> 30 µM (inactive)	> 30 µM (inactive)	> 30 µM (inactive)
Cc1c(F)cc(C(=O)NC2CC2)cc1-c1ccc(C(=O)NCC(C)(C)C)cn1 [LOSMAPIMOD]		> 30 µM (inactive)		> 30 µM (inactive)	> 30 µM (inactive)	> 30 µM (inactive)	> 30 µM (inactive)		
CN(C)C(=O)c1cc2cnc(Nc3ccc(N4CCNCC4)cn3)nc2n1C1CCCC1 [RIBOCICLIB]		> 30 µM (inactive)	> 30 µM (inactive)		> 30 µM (inactive)				> 30 µM (inactive)
COc1cc(OC)c(/C=C/S(=O)(=O)Cc2ccc(OC)c(NCC(=O)O)c2)c(OC)c1 [RIGOSERTIB]		> 30 µM (inactive)	> 30 µM (inactive)		> 30 µM (inactive)	> 30 µM (inactive)	> 30 µM (inactive)	> 30 µM (inactive)	> 30 µM (inactive)
CNC(=O)CN1CCC(Oc2cc3c(Nc4cccc(Cl)c4F)ncnc3cc2OC)CC1 [SAPITINIB]		> 30 µM (inactive)	> 30 µM (inactive)		> 30 µM (inactive)	> 30 µM (inactive)	> 30 µM (inactive)		> 30 µM (inactive)
C[C@@H](c1ccc2nccn2c1)n1nnc2ncc(-c3cnn(C)c3)nc21 [SAVOLITINIB]	> 30 µM (inactive)	> 30 µM (inactive)				> 30 µM (inactive)		> 30 µM (inactive)	> 30 µM (inactive)
C[C@@H]1CN(Cc2ccc(F)cc2)[C@@H](C)CN1C(=O)c1cc2c(C(=O)C(=O)N(C)C)cn(C)c2cc1Cl [TALMAPIMOD]	> 30 µM (inactive)	> 30 µM (inactive)	> 30 µM (inactive)		> 30 µM (inactive)	> 30 µM (inactive)	> 30 µM (inactive)		> 30 µM (inactive)
CN1CCC(COc2cnc(-c3cccc(Cn4nc(-c5cccc(C#N)c5)ccc4=O)c3)nc2)CC1 [TEPOTINIB]	> 30 µM (inactive)	> 30 µM (inactive)		> 30 µM (inactive)	> 30 µM (inactive)		> 30 µM (inactive)	> 30 µM (inactive)	
O=c1sn(-c2cccc3ccccc23)c(=O)n1Cc1ccccc1 [TIDEGLUSIB]			> 30 µM (inactive)			> 30 µM (inactive)	> 30 µM (inactive)	> 30 µM (inactive)	> 30 µM (inactive)
CCn1c(=O)c(-c2cc[nH]n2)cc2c(C)nc(N)nc21 [VOXTALISIB]	> 30 µM (inactive)	> 30 µM (inactive)		> 30 µM (inactive)	> 30 µM (inactive)	> 30 µM (inactive)	> 30 µM (inactive)	> 30 µM (inactive)	

Now from value to compound:

Kd [1]	Kd [2]	Kd [3]	Kd [4]	Kd [5]	Kd [6]	Kd [7]	Kd [8]	Kd [9]	Structure (SMILES)
			> 30 µM (inactive)	> 30 µM (inactive)	> 30 µM (inactive)	> 30 µM (inactive)	> 30 µM (inactive)		CCN1CCN(Cc2ccc(-c3cc4c(N[C@H](C)c5ccccc5)ncnc4[nH]3)cc2)CC1 [AEE-788]
		> 30 µM (inactive)		> 30 µM (inactive)	> 30 µM (inactive)	> 30 µM (inactive)	> 30 µM (inactive)	> 30 µM (inactive)	COc1cc(N2CCC(N3CCN(C)CC3)CC2)ccc1Nc1ncnc(Nc2ccccc2S(=O)(=O)C(C)C)n1 [ASP-3026]
> 30 µM (inactive)	> 30 µM (inactive)			> 30 µM (inactive)	> 30 µM (inactive)	> 30 µM (inactive)	> 30 µM (inactive)	> 30 µM (inactive)	COc1ccc(-c2ccc3c(N4CCOC[C@@H]4C)nc(N4CCOC[C@@H]4C)nc3n2)cc1CO [AZD-8055]
	> 30 µM (inactive)	> 30 µM (inactive)	> 30 µM (inactive)	> 30 µM (inactive)	> 30 µM (inactive)	> 30 µM (inactive)	> 30 µM (inactive)		O=C1NC(=O)/C(=C/c2ccc3nccc(-c4ccncc4)c3c2)S1 [GSK-1059615]
> 30 µM (inactive)	> 30 µM (inactive)	> 30 µM (inactive)		> 30 µM (inactive)	> 30 µM (inactive)	> 30 µM (inactive)	> 30 µM (inactive)	> 30 µM (inactive)	O=C(O)[C@]1(Cc2cccc(Nc3nccs3)n2)CC[C@@H](Oc2cccc(Cl)c2F)CC1 [MK-5108]
> 30 µM (inactive)	> 30 µM (inactive)	> 30 µM (inactive)	> 30 µM (inactive)	> 30 µM (inactive)	> 30 µM (inactive)		> 30 µM (inactive)		OCCn1cc(-c2cnc3nnn(Cc4ccc5ncccc5c4)c3n2)cn1 [PF-04217903]

Source: ChEMBL document CHEMBL3991601, “The target landscape of clinical kinase drugs” (Science, 2017)
